Data as given in paper PMC12055641, “The Study of Antistaphylococcal Potential of Omiganan and Retro-Omiganan Under Flow Conditions” (Probiotics and Antimicrobial Proteins, 2024).
No end group written: not given here.

Columns and labels:
[1] = test system: S. aureus ATCC 33591 (MRSA); experiment: Biofilm formation in peptide-coated PDMS channels under flow; assay type: cell-based, Staphylococcus aureus; conditions: peptide co-immobilized on pDa-coated PDMS channel, 24 h flow
Experimental: (§1) Formation of the biofilm inside the PDMS flow chambers was performed using three peristaltic pumps working simultaneously (LP-pump, Kamush, Lipopharm, Poland) and sterile Tygon® 3350 silicone hoses (2.4 × 0.8 × 0.8 mm) with a length of 30 and 50 cm for inlet and outlet, respectively. Bacterial suspensions were prepared (0.5 × 10^7 CFU/mL) in sterile 50-mL test tubes, which were placed in a heating block at 37 °C. Before experiments, all channels were assessed for tightness and sterilized using a 70% 2-propanol solution (10 min, flow rate 1 mL/min) and rinsed with sterile PBS solution (10 min, flow 0.1 mL/min). The formation of biofilm inside the channels was divided into three stages: (1) adhesion—at this stage S. aureus suspensions were passed through the channels for 4 h at a flow rate of 0.1 mL/min; (2) rinsing—the previously used hoses were replaced with new sterile ones, and the channels were rinsed with sterile PBS solution for 10 min at a flow rate of 0.1 mL/min; (3) biofilm growth—after flushing the channels, the silicone hoses were placed in tubes with MHB medium, which was passed through the channels for 24 h at a flow rate of 0.1 mL/min. All experiments included growth and sterility controls.
(§2) Incorporation of omiganan and retro-omiganan into PDMS channels was conducted using a polydopamine (pDa) coating, as previously described with a slight modification resulting from flow-based experimental model. To do this, the pDa coating was done by rinsing the channels with a solution of dopamine hydrochloride (Sigma-Aldrich, 2 mg/mL) in 10 mM bicin buffer (pH 8.5) for 18 h, 0.3 mL/min in a closed system (Fig. 3A). Then, the channels were rinsed with a sterile solution of demineralized water. Further co-immobilization was conducted using new, sterile silicone hoses connected to flow chambers and test tubes containing aqueous solutions of the peptides (100 µg/mL) pumped through the channels in a closed system for 6 h at 0.3 mL/min (Fig. 3B). Assessment of peptide binding was performed using liquid chromatography (RP-HPLC), by comparing the content of the compounds in the solution before and after incorporation. Waters Alliance e2695 system with a Waters 2998 PDA Detector (software-Empower 3, Waters, Milford, MA, USA) was used. All analyses were carried out on a Waters X-Bridge Shield RP-18 column (3.0 × 100 mm, 3.5 μm particle size, 130 Å pore size) with UV detection at 214 nm and samples (10 μL) were eluted with a linear 10–90% acetonitrile gradient in deionized water over 15 min at 25.0 ± 0.1 °C. The mobile phase flow rate was 0.5 mL/min. Both eluents contained 0.1% (v/v) of TFA. Each peptide sample was analyzed in triplicate. Such functionalized PDMS channels were used for further studies on biofilm formation. […]

S. aureus ATCC 25923 [2] = experiment: as above; assay type: cell-based, Staphylococcus aureus; conditions: peptide co-immobilized on pDa-coated PDMS channel, 24 h flow
Experimental: as §1, §2

[3] = test system: S. aureus ATCC 33591 (MRSA); experiment: microbe, parasite or virus in culture
Procedure, shortened: (§3)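 MICs by CLSI broth microdilution in Mueller–Hinton broth (Ca²⁺ 50 mg/L added for daptomycin), read as lowest concentration inhibiting visible growth. MBEC on 24 h biofilms (0.5 × 10^7 CFU/mL, 37 °C) and MBIC with compound present during 24 h growth, both read by resazurin; triplicates.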

S. aureus ATCC 25923 [4] = experiment: microbe, parasite or virus in culture
Procedure, shortened: as §3

[5] = S. aureus ATCC 33591 (MRSA) biofilm treated under flow with Omiganan (half MBEC) for 24 h
[6] = S. aureus ATCC 33591 (MRSA) biofilm treated under flow with Omiganan (half MBEC) for 48 h
[7] = S. aureus ATCC 33591 (MRSA) biofilm treated under flow with Omiganan (half MBEC) for 72 h
[8] = S. aureus ATCC 33591 (MRSA) biofilm treated under flow with Retro-Omiganan (half MBEC) for 24 h
[9] = S. aureus ATCC 33591 (MRSA) biofilm treated under flow with Retro-Omiganan (half MBEC) for 48 h
[10] = S. aureus ATCC 33591 (MRSA) biofilm treated under flow with Retro-Omiganan (half MBEC) for 72 h
[11] = S. aureus ATCC 33591 (MRSA), time 0 h (baseline, before peptide exposure)

ILRWPWWPWRRK-NH2 [Omiganan]
reduction of bacteria forming biofilm relative to control [1]: 98%
reduction of bacteria forming biofilm relative to control (S. aureus ATCC 25923 [2]): 71%
MIC [3, 5]: 8.0 µg/mL
MIC [3, 6]: 8.0 µg/mL
MIC [3, 7]: 8.0 µg/mL
MIC [3, 8]: 8.0 µg/mL
MIC [3, 9]: 8.0 µg/mL
MIC [3, 10]: 8.0 µg/mL
MIC [3, 11]: 16.0 µg/mL
MIC (S. aureus ATCC 25923 [4]; ATCC 25923, 0 h): 16.0 µg/mL
MIC (S. aureus ATCC 25923 [4]; ATCC 25923, 24 h): 8.0 µg/mL
MIC (S. aureus ATCC 25923 [4]; ATCC 25923, 48 h): 8.0 µg/mL
MIC (S. aureus ATCC 25923 [4]; ATCC 25923, 72 h): 8.0 µg/mL

KRRWPWWPWRLI-NH2 [Retro-Omiganan]
reduction of bacteria forming biofilm relative to control [1]: 96%
reduction of bacteria forming biofilm relative to control (S. aureus ATCC 25923 [2]): 81%
MIC [3, 5]: 8.0 µg/mL
MIC [3, 6]: 8.0 µg/mL
MIC [3, 7]: 8.0 µg/mL
MIC [3, 8]: 8.0 µg/mL
MIC [3, 9]: 8.0 µg/mL
MIC [3, 10]: 8.0 µg/mL
MIC [3, 11]: 16.0 µg/mL
MIC (S. aureus ATCC 25923 [4]; S. aureus 25923, time 0 h (baseline, before peptide exposure)): 8.0 µg/mL
MIC (S. aureus ATCC 25923 [4]; S. aureus 25923 biofilm treated under flow with Omiganan (half MBEC) for 24 h): 8.0 µg/mL
MIC (S. aureus ATCC 25923 [4]; S. aureus 25923 biofilm treated under flow with Omiganan (half MBEC) for 48 h): 8.0 µg/mL
MIC (S. aureus ATCC 25923 [4]; S. aureus 25923 biofilm treated under flow with Omiganan (half MBEC) for 72 h): 8.0 µg/mL
MIC (S. aureus ATCC 25923 [4]; S. aureus 25923 biofilm treated under flow with Retro-Omiganan (half MBEC) for 24 h): 8.0 µg/mL
MIC (S. aureus ATCC 25923 [4]; S. aureus 25923 biofilm treated under flow with Retro-Omiganan (half MBEC) for 48 h): 8.0 µg/mL
MIC (S. aureus ATCC 25923 [4]; S. aureus 25923 biofilm treated under flow with Retro-Omiganan (half MBEC) for 72 h): 8.0 µg/mL
